Assay results taken from ChEMBL document CHEMBL1154275, “Synthesis and biological evaluation of new heterocyclic quinolinones as anti-parasite and anti-HIV drug candidates” (Bioorg Med Chem Lett, 2009).

Key:
[1] = test system: Human immunodeficiency virus 1; assay: Antiviral activity against HIV1 3B infected in human MT4 cells after 4 days by MTT assay; format: functional, organism-based
[2] = test system: Human immunodeficiency virus 2; assay: Antiviral activity against HIV2 ROD infected in human MT4 cells after 4 days by MTT assay; format: functional, organism-based, ISOLATE ROD
[3] = (§1) Cytotoxicity against human MT4 cells after 4 days by MTT assay; format: cell-based; settings: MT4 cells
Plasmodium falciparum = assay: Antimalarial activity against chloroquine, pyrimethamine, proguanil-resistant Plasmodium falciparum infected in human erythrocytes after 48 hrs by flow cytometry; format: functional, organism-based
THP-1 = assay: Cytotoxicity against human THP1 cells after 72 hrs by propidium iodide staining-based flow cytometry; format: cell-based
Leishmania donovani [4] = assay: Antileishmanial activity against Leishmania donovani MHOM/IN/78/80/DD8 promastigote by alamar blue method; format: functional, organism-based
Leishmania donovani [5] = assay: Antileishmanial activity against Leishmania donovani MHOM/IN/78/80/DD8 amastigote by alamar blue method; format: functional, organism-based
Trichomonas vaginalis = assay: Antitrichomonal activity against Trichomonas vaginalis TVR79 after 48 hrs by optical microscopy; format: functional, organism-based
[6] = Selectivity index, ratio of IC50 for human THP1 cells to IC50 for Plasmodium falciparum; format: toxicity, cell-based, THP-1
MT4 = assay: as §1; format: cell-based; settings: mt4, 96 h
[7] = Human immunodeficiency virus 1, 3B, MT4, 96 h, read-out: EC50
[8] = Human immunodeficiency virus 2, ISOLATE ROD, MT4, 96 h, read-out: EC50
[9] = Plasmodium falciparum, 48 h, read-out: IC50
[10] = Homo sapiens, THP-1, 72 h, read-out: IC50
[11] = Leishmania donovani, MHOM/IN/78/80/DD8, read-out: IC50
[12] = Trichomonas vaginalis, TVR79, 48 h, read-out: IC50

SMILES | EC50 [1, 7] [µM] | EC50 [2, 8] [µM] | CC50 at 96 h [3] [µM] | IC50 (Plasmodium falciparum; [9]) [µM] | IC50 (THP-1; [10]) [µM] | IC50 (Leishmania donovani [4]; [11]) [µM] | IC50 (Leishmania donovani [5]; [11]) [µM] | IC50 (Trichomonas vaginalis; [12]) [µM] | selectivity index ([6]; human, THP-1 cells) | EC50 ([1]; mt4) | EC50 ([2]; mt4) | CC50 (MT4) | IC50 (Plasmodium falciparum) | IC50 (THP-1; thp-1) | IC50 (Leishmania donovani [4]) | IC50 (Leishmania donovani [5]) | IC50 (Trichomonas vaginalis) | selectivity index ([6]; thp-1)
CC1(C)OC(=O)C(=CNc2ccc([N+](=O)[O-])cc2)C(=O)O1 | > 21.2 | > 21.2 | > 21.2 | 40 | > 250 | > 100 | > 100 | > 100 | > 6.2 |  |  |  |  |  |  |  |  | 
CC1(C)OC(=O)C(=CNc2ccc3ncsc3c2)C(=O)O1 | > 39.1 | > 39.1 | > 39.1 | 60 | > 500 | > 200 | 40 | > 200 | > 8.3 |  |  |  |  |  |  |  |  | 
O=c1cc[nH]c2ccc([N+](=O)[O-])cc12 | > 356 | > 356 | > 356 | 52 | 130 | > 200 | > 200 | > 200 | 2.5 |  |  |  |  |  |  |  |  | 
O=c1cc[nH]c2ccc3ncsc3c12 |  |  |  |  |  |  |  |  |  | ND(Insoluble) | ND(Insoluble) | ND(Insoluble) | ND(Insoluble) | ND(Insoluble) | ND(Insoluble) | ND(Insoluble) | ND(Insoluble) | ND(Insoluble)
CC1(C)OC(=O)C(=CNc2cccc(-c3nc4ccccc4s3)c2)C(=O)O1 | > 190 | > 190 | > 190 | 30 | 115 | > 200 | > 200 | > 200 | 4 |  |  |  |  |  |  |  |  | 
CCOC(=O)C(=CNc1ccc([N+](=O)[O-])cc1)C(=O)OCC | ≥ 198 | ≥ 121 | ≥ 250 | > 250 | > 125 | > 250 | > 100 | > 125 |  |  |  |  |  |  |  |  |  | Not Active
CC1(C)OC(=O)C(=CNc2ccc3[nH]c(=O)[nH]c3c2)C(=O)O1 | > 412 | > 412 | > 412 | > 500 | > 500 | > 200 | > 200 | > 200 |  |  |  |  |  |  |  |  |  | Not Active
O=c1cc[nH]c2c([N+](=O)[O-])cccc12 | > 71.6 | > 71.6 | > 71.6 | > 500 | > 500 | > 200 | > 200 | > 200 |  |  |  |  |  |  |  |  |  | Not Active
O=c1cc[nH]c2cc3c(cc12)OCCO3 | > 356 | > 356 | > 356 | 50 | 115 | > 200 | > 200 | > 200 | 2.3 |  |  |  |  |  |  |  |  | 
Cc1nc2ccc3[nH]ccc(=O)c3c2s1 | > 405 | > 405 | > 405 |  | > 500 | > 200 | > 200 | > 200 |  |  |  |  |  |  |  |  |  | 
O=c1cc[nH]c2ccc3nn[nH]c3c12 |  |  |  |  |  |  |  |  |  | ND(Insoluble) | ND(Insoluble) | ND(Insoluble) | ND(Insoluble) | ND(Insoluble) | ND(Insoluble) | ND(Insoluble) | ND(Insoluble) | ND(Insoluble)
O=c1cc[nH]c2ccc3[nH]ncc3c12 |  |  |  |  |  |  |  |  |  | ND(Insoluble) | ND(Insoluble) | ND(Insoluble) | ND(Insoluble) | ND(Insoluble) | ND(Insoluble) | ND(Insoluble) | ND(Insoluble) | ND(Insoluble)
CN(C)c1nc2cc3[nH]ccc(=O)c3cc2o1 | > 324 | > 324 | > 324 | 40 | > 125 | > 250 | > 100 | > 125 | > 3.1 |  |  |  |  |  |  |  |  | 
O=c1cc[nH]c2c(-c3nc4ccccc4s3)cccc12 | > 8.6 | ≥ 1.4 | 8.6 | > 500 | > 500 | > 200 | > 200 | > 200 |  |  |  |  |  |  |  |  |  | Not Active
Nc1ccc2[nH]ccc(=O)c2c1 | > 631 | ≥ 501 | ≥ 631 | 90 | > 500 | > 200 | > 200 | > 200 | > 5.5 |  |  |  |  |  |  |  |  | 
Cc1nc2ccc3c(c(=O)ccn3C)c2s1 | > 341 | > 341 | > 341 | > 250 | 115 | > 100 | > 100 | > 100 |  |  |  |  |  |  |  |  |  | Not Active
CC1(C)OC(=O)C(=CNc2cccc([N+](=O)[O-])c2)C(=O)O1 | > 251 | > 251 | > 251 | 60 | > 250 | > 100 | > 100 | > 100 | > 4.1 |  |  |  |  |  |  |  |  | 
CC1(C)OC(=O)C(=CNc2ccccc2[N+](=O)[O-])C(=O)O1 | > 411 | ≥ 260 | ≥ 411 | > 500 | > 500 | > 200 | > 200 | > 200 |  |  |  |  |  |  |  |  |  | Not Active
CC1(C)OC(=O)C(=CNc2ccc3c(c2)OCCO3)C(=O)O1 | > 428 | > 428 | > 428 | > 500 | > 500 | > 200 | > 200 | > 200 |  |  |  |  |  |  |  |  |  | Not Active
Cc1nc2ccc(NC=C3C(=O)OC(C)(C)OC3=O)cc2s1 | > 317 | > 317 | > 317 | 60 | > 250 | > 250 | > 200 | > 100 | > 4.1 |  |  |  |  |  |  |  |  | 
CC1(C)OC(=O)C(=CNc2ccc3[nH]nnc3c2)C(=O)O1 | > 68.1 | > 68.1 | > 68.1 | > 500 | > 500 | > 200 | > 200 | > 200 |  |  |  |  |  |  |  |  |  | Not Active
CC1(C)OC(=O)C(=CNc2ccccc2-c2nc3ccccc3s2)C(=O)O1 | > 41.6 | > 41.6 | 41.6 | > 250 | > 250 | > 250 | > 100 | > 250 |  |  |  |  |  |  |  |  |  | Not Active
CC1(C)OC(=O)C(=CNc2ccc3c(c2)OCO3)C(=O)O1 | ≥ 118 | > 430 | > 430 | 10 | 250 | > 100 | 20 | > 100 | 25 |  |  |  |  |  |  |  |  | 
CC1(C)OC(=O)C(CNc2ccc3c(c2)CCC3)C(=O)O1 | > 292 | > 292 | > 292 | > 500 | > 500 | > 200 | > 200 | > 200 |  |  |  |  |  |  |  |  |  | Not Active
CC1(C)OC(=O)C(=CNc2ccc3cn[nH]c3c2)C(=O)O1 | > 436 | > 436 | > 436 | > 250 | > 250 | > 100 | > 100 | > 100 |  |  |  |  |  |  |  |  |  | Not Active
CN(C)c1nc2ccc(NC=C3C(=O)OC(C)(C)OC3=O)cc2o1 | > 378 | > 378 | > 378 | 40 | > 250 | > 100 | > 100 | > 100 | > 6.25 |  |  |  |  |  |  |  |  | 
C[C@@H]1[C@H](O)[C@@H](C)/C=C/C=C/C=C/C=C/C=C/C=C/C=C/[C@H](O[C@@H]2O[C@H](C)[C@@H](O)[C@H](N)[C@@H]2O)C[C@@H]2O[C@](O)(C[C@@H](O)C[C@@H](O)[C@H](O)CC[C@@H](O)C[C@@H](O)CC(=O)O[C@H]1C)C[C@H](O)[C@H]2C(=O)O [AMPHOTERICIN B] |  |  |  |  |  |  | 0.1 |  |  |  |  |  |  |  |  |  |  | 
C[C@H]1c2cccc(O)c2C(=O)C2=C(O)[C@]3(O)C(=O)C(C(N)=O)=C(O)[C@@H](N(C)C)[C@@H]3[C@@H](O)[C@@H]21 [DOXYCYCLINE] |  |  |  |  | 20 |  |  |  | 3.1 |  |  |  |  |  |  |  |  | 
Cc1ncc([N+](=O)[O-])n1CCO [METRONIDAZOLE] |  |  |  |  | > 500 |  |  | 2.7 |  |  |  |  |  |  |  |  |  | 
